According to ChEMBL document CHEMBL2406902, “Potent and Orally Bioavailable GPR142 Agonists as Novel Insulin Secretagogues for the Treatment of Type 2 Diabetes” (ACS Med Chem Lett, 2013):
pEC50, pIC50: −log10 of the molar value. Each block holds one compound with its values, some of them ahead of it. Calls of active or inactive are those of the source. No cut-off for these calls is given here.

Experiments:
[1] = biological target: T1, Probable G-protein coupled receptor 142 (Homo sapiens, UniProt Q7Z601); test: Agonist activity at human GPR142 transfected in HEK293 cells after 1 hr by inositol phosphate accumulation assay; assay type: functional, cell-based; details: for pEC50: read-out: EC50
T1 sequence (Q7Z601 whole entry): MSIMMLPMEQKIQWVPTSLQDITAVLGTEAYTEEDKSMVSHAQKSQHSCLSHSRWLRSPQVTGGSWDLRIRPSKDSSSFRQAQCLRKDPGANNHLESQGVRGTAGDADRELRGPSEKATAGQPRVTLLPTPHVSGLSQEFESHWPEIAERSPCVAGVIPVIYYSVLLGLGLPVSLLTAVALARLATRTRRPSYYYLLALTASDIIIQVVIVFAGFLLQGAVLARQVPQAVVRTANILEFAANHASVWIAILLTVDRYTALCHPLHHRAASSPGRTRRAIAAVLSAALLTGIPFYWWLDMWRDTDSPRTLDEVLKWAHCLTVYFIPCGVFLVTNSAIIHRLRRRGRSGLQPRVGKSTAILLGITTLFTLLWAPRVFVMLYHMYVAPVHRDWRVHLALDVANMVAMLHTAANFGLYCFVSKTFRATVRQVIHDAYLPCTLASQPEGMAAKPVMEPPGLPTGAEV

[2] = Metabolic stability in mouse liver microsomes assessed as compound remaining at 1 uM after 15 mins by LC/MS analysis; assay type: ADME, Microsome; details: read-out: Stability
[3] = Metabolic stability in monkey liver microsomes assessed as compound remaining at 1 uM after 30 mins by LC/MS analysis; assay type: ADME, Macaca mulatta, Microsome; details: rhesus monkey, read-out: Stability
[4] = Permeability of the compound at pH 7.4 by PAMPA; assay type: ADME; details: read-out: permeability
[5] = Permeability of the compound at pH 5 by PAMPA; assay type: ADME; details: read-out: permeability
[6] = Metabolic stability in human liver microsomes assessed as compound remaining at 1 uM after 30 mins by LC/MS analysis; assay type: ADME, Microsome; details: read-out: Stability
[7] = Metabolic stability in human liver microsomes assessed as compound remaining at 1 uM after 15 mins by LC/MS analysis; assay type: ADME, Microsome; details: read-out: Stability
[8] = tested on: Pancreatic islet; test: Antidiabetic activity in rat primary pancreatic islets assessed as potentiation of insulin secretion under low glucose condition at 1 to 100 uM after 60 mins; assay type: functional
[9] = tested on: Pancreatic islet; test: Antidiabetic activity in rat primary pancreatic islets assessed as potentiation of insulin secretion under high glucose condition at 1 to 100 uM after 60 mins; assay type: functional
[10] = Clearance in monkey at 0.5 mg/kg, iv; assay type: ADME, organism-based, Macaca mulatta; set-up: dose 0.5 mg/kg, route intravenous; details: rhesus monkey, in vivo
[11] = tested on: Mus musculus; test: Antidiabetic activity in sc dosed mouse assessed as improvement of glucose tolerance; assay type: functional, organism-based
[12] = Volume of distribution at steady state in monkey at 0.5 mg/kg, iv; assay type: ADME, organism-based, Macaca mulatta; set-up: dose 0.5 mg/kg, route intravenous; details: rhesus monkey, in vivo, read-out: Vdss
[13] = Oral bioavailability in monkey at 1 mg/kg; assay type: ADME, organism-based, Macaca mulatta; details: rhesus monkey, in vivo
[14] = tested on: Mus musculus; test: Antidiabetic activity in po dosed C57BL/6J mouse assessed as decrease in blood glucose level administered 30 mins followed by glucose challenge by OGTT; assay type: functional
[15] = Half life in monkey at 1 mg/kg, po; assay type: ADME, organism-based, Macaca mulatta; set-up: dose 1 mg/kg, route oral; details: rhesus monkey, in vivo
[16] = tested on: Cynomolgus monkey; test: Antidiabetic activity in cynomolgus monkey having impaired glucose tolerance assessed as decrease in blood glucose level at 10 mg/kg, po administered 60 mins for once a week followed by glucose challenge by OGTT; assay type: functional, organism-based; set-up: dose 10 mg/kg; details: Macaca fascicularis
[17] = biological target: Cytochrome P450 3A4 (Homo sapiens, UniProt P08684); test: Inhibition of CYP3A4 (unknown origin); assay type: ADME
[18] = Metabolic stability in rat liver microsomes assessed as compound remaining at 1 uM after 30 mins by LC/MS analysis; assay type: ADME, Microsome; details: read-out: Stability
[19] = tested on: Cynomolgus monkey; test: Antidiabetic activity in po dosed cynomolgus monkey having impaired glucose tolerance assessed as decrease in blood glucose level administered 60 mins for once a week followed by glucose challenge by OGTT; assay type: functional, organism-based; details: Macaca fascicularis
[20] = tested on: Mus musculus; test: Antidiabetic activity in po bolus dosed ob/ob mouse assessed as increase in plasma insulin level after 15 to 20 mins; assay type: functional, organism-based
[21] = Lipophilicity, log D of the compound at pH 7.4; assay type: physicochemical; details: buffer
[22] = tested on: Mus musculus; test: Antidiabetic activity in C57BL/6J mouse assessed as decrease in blood glucose level at 10 mg/kg administered 30 mins followed by glucose challenge by OGTT; assay type: functional, organism-based; set-up: dose 10 mg/kg
[23] = tested on: Cynomolgus monkey; test: Antidiabetic activity in cynomolgus monkey having impaired glucose tolerance assessed as decrease in blood glucose level at 10 mg/kg administered 60 mins for once a week followed by glucose challenge by OGTT; assay type: functional, organism-based; set-up: dose 10 mg/kg; details: Macaca fascicularis

Cytochrome P450 3A4, sequence (P08684 whole entry): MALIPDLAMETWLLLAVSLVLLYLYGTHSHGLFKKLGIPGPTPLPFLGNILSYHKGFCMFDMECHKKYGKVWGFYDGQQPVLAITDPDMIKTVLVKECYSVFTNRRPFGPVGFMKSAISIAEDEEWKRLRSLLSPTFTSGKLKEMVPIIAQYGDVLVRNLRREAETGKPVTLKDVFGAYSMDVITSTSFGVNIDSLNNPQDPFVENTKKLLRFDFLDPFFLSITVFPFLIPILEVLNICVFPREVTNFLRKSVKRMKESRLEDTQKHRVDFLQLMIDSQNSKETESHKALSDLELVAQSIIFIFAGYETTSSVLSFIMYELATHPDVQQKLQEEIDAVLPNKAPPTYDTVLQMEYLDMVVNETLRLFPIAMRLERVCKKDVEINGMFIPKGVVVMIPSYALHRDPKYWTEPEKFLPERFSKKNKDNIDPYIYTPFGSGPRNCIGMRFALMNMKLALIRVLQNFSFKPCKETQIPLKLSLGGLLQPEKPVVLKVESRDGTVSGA

SMILES: CCOCc1c(C(=O)NCc2cncn2C)cnn1-c1ncc(C)c(NC2CCC2)n1
remaining at 0.5 h, 1 µM [3]: 68% | Papp [4]: 1.6 ×10⁻⁶ cm/s | pEC50 [1]: 7.60 | Papp [5]: 0.2 ×10⁻⁶ cm/s | remaining at 0.5 h, 1 µM [6]: 87%

SMILES: CCCCc1c(C(=O)NCc2cnc(C)n2C)cnn1-c1ncc(C)c(-c2cccs2)n1
pEC50 [1]: 7.52 | remaining at 0.25 h, 1 µM [2]: 6% | remaining at 0.25 h, 1 µM [7]: 20%

SMILES: CCCCc1c(C(=O)NCc2c(C)ncn2C)cnn1-c1ncc(C)c(-c2cccs2)n1
pEC50 [1]: 9.00 | remaining at 0.25 h, 1 µM [7]: 19%

SMILES: CCOCc1c(C(=O)NCc2cncn2C)cnn1-c1ncc(C)c(N2CCC2)n1
remaining at 0.5 h, 1 µM [3]: 78% | Papp [4]: 1.6 ×10⁻⁶ cm/s | pEC50 [1]: 7.55 | Papp [5]: 0.2 ×10⁻⁶ cm/s | remaining at 0.5 h, 1 µM [6]: 76%

SMILES: CCCCc1c(C(=O)NC2CCCc3ncn(C)c32)cnn1-c1ncc(C)c(-c2cccs2)n1 (stereo not given)
pEC50 [1]: 7.00 | remaining at 0.25 h, 1 µM [2]: 5% | remaining at 0.25 h, 1 µM [7]: 22%

SMILES: CCCCc1c(C(=O)NCc2cncn2CC(=O)O)cnn1-c1ncc(C)c(-c2cccs2)n1
pEC50 [1]: 9.70 | remaining at 0.25 h, 1 µM [2]: 93%

SMILES: CCOCc1c(C(=O)NCc2cncn2C)cnn1-c1ncc(C)c(N2CCCCC2)n1
Activity [14]: Dose-dependent effect | ED50 ([14]; 0.5 h): 3.3 mg/kg | half-life [15]: 1.2 h | Activity [16]: Active | pIC50 [17]: 6.00 | remaining at 0.5 h, 1 µM [3]: 61% | Papp [4]: 3.5 ×10⁻⁶ cm/s | pEC50 [1]: 7.66 | Papp [5]: 1.5 ×10⁻⁶ cm/s | remaining at 0.5 h, 1 µM [18]: 53% | clearance [10]: 16.7 mL/min/kg | remaining at 0.5 h, 1 µM [6]: 88% | Activity [19]: Dose-dependent effect | Vd [12]: 0.77 L/kg | bioavailability [13]: 26% | Activity [20]: Dose-dependent effect

SMILES: CCOCc1c(C(=O)NCc2cncn2C)cnn1-c1ncc(C)c(OCC)n1
remaining at 0.5 h, 1 µM [3]: 66% | Papp [4]: 2.9 ×10⁻⁶ cm/s | pEC50 [1]: 7.02 | Papp [5]: 1.2 ×10⁻⁶ cm/s | remaining at 0.5 h, 1 µM [18]: 77% | remaining at 0.5 h, 1 µM [6]: 77%

SMILES: CCOCc1c(C(=O)NCc2cncn2C)cnn1-c1ncc(C)c(-c2cccs2)n1
remaining at 0.5 h, 1 µM [3]: 34% | Papp [4]: 4 ×10⁻⁶ cm/s | pEC50 [1]: 8.89 | Papp [5]: 2 ×10⁻⁶ cm/s | logD [21]: 2.2 | remaining at 0.5 h, 1 µM [6]: 71%

SMILES: CCCCc1c(C(=O)NCc2sc(C)nc2C)cnn1-c1ncc(C)c(-c2cccs2)n1
pEC50 [1]: 6.70 | remaining at 0.25 h, 1 µM [2]: 10%

SMILES: N[C@@H](CC(=O)N1CCn2c(nnc2C(F)(F)F)C1)Cc1cc(F)c(F)cc1F
Activity [22]: Active | Activity [23]: Active

SMILES: CCCCc1c(C(=O)NCc2c[nH]c3ccccc23)cnn1-c1ncc(C)c(-c2cccs2)n1
pEC50 [1]: < 4.70

SMILES: CCOCc1c(C(=O)NCc2cncn2C)cnn1-c1ncc(C)c(N2CCCC2)n1
remaining at 0.5 h, 1 µM [3]: 46% | Papp [4]: 3.1 ×10⁻⁶ cm/s | pEC50 [1]: 7.85 | Papp [5]: 0.8 ×10⁻⁶ cm/s | remaining at 0.5 h, 1 µM [18]: 66% | logD [21]: 2 | remaining at 0.5 h, 1 µM [6]: 69%

Second part, led by results:

pEC50 [1]: 7.05 | remaining at 0.25 h, 1 µM [2]: 13%
SMILES: CCCCc1c(C(=O)NCc2ccnn2C)cnn1-c1ncc(C)c(-c2cccs2)n1

pEC50 [1]: 6.00
SMILES: CCc1c(C(=O)NCc2ccncc2)cnn1-c1ncc(C)c(-c2cccs2)n1

pEC50 [1]: 5.52 | remaining at 0.25 h, 1 µM [2]: 0%
SMILES: CCCc1c(C(=O)N(CC)Cc2ccncc2)cnn1-c1ncc(C)c(-c2cccs2)n1

pEC50 [1]: 5.82 | remaining at 0.25 h, 1 µM [2]: 3% | clearance [10]: 21.7 mL/min/kg | Vd [12]: 1 L/kg | bioavailability [13]: 3.9%
SMILES: COCc1c(C(=O)NCc2ccncc2)cnn1-c1ncc(C)c(-c2cccs2)n1
Activity [8]: inactive | Activity [9]: Active | Activity [11]: Active

EC50 ([1]; hek293): Not Active | remaining at 0.25 h, 1 µM [2]: 2%
SMILES: CCCCc1c(C(=O)NCc2ccc(F)cc2)cnn1-c1ncc(C)c(-c2cccs2)n1

pEC50 [1]: 6.60 | remaining at 0.25 h, 1 µM [2]: 1%
SMILES: CCCc1c(C(=O)NCc2ccncc2)cnn1-c1ncc(C)c(-c2cccs2)n1

pEC50 [1]: 6.00
SMILES: CCCCCc1c(C(=O)NCc2ccncc2)cnn1-c1ncc(C)c(-c2cccs2)n1

pEC50 [1]: 4.82 | remaining at 0.25 h, 1 µM [2]: 4.7%
SMILES: CCCc1c(C(=O)NCc2cn(C)cn2)cnn1-c1ncc(C)c(-c2cccs2)n1

pEC50 [1]: 7.52
SMILES: CCOCc1c(C(=O)NCc2ccncc2)cnn1-c1ncc(C)c(-c2cccs2)n1

pEC50 [1]: 8.15
SMILES: CCCCc1c(C(=O)NCc2ccncc2)cnn1-c1ncc(C)c(-c2cccs2)n1

remaining at 0.5 h, 1 µM [3]: 40% | Papp [4]: 8 ×10⁻⁶ cm/s | pEC50 [1]: 9.00 | Papp [5]: 3.6 ×10⁻⁶ cm/s | remaining at 0.25 h, 1 µM [2]: 56% | remaining at 0.5 h, 1 µM [18]: 54% | remaining at 0.25 h, 1 µM [7]: 70% | remaining at 0.5 h, 1 µM [6]: 74%
SMILES: CCCCc1c(C(=O)NCc2cncn2C)cnn1-c1ncc(C)c(-c2cccs2)n1

pEC50 [1]: 5.92
SMILES: CCC(C)c1c(C(=O)NCc2ccncc2)cnn1-c1ncc(C)c(-c2cccs2)n1 (stereo not given)

pEC50 [1]: < 4.70 | remaining at 0.25 h, 1 µM [2]: 11%
SMILES: CCCc1c(C(=O)NCc2cc(C)no2)cnn1-c1ncc(C)c(-c2cccs2)n1

pEC50 [1]: 8.30 | remaining at 0.25 h, 1 µM [2]: 2%
SMILES: CCCc1c(C(=O)NC(C)(C)c2ccncc2)cnn1-c1ncc(C)c(-c2cccs2)n1
